Reference: patent publication US3953293A, “Process for the preparation of xylostasin” (Takeda Chemical Industries, Ltd., priority 1972, dated 1976)
Values after ≈ are worked out from the molar mass of the structure shown.

Tests used:
[1] = Acute toxicity by intravenous injection into mice; settings: mouse, in vivo, free base
Procedure: The acute toxicity of xylostasin was examined by intravenous injection into mice. The LD50 value for the free base was approximately 1,000 mg/kg.

Escherichia coli 0-111 = assay: Anti-infection test in mice; type: in vivo; settings: mice infected with Escherichia coli 0-111; single subcutaneous dose of 10 mg/kg immediately after infection
[2] = tested on: Escherichia coli IFO 3044; assay: Minimal inhibitory concentration by the agar dilution method; type: cell-based; settings: IFO3044, bouillon agar
From the text: (§1) Minimal inhibitory concentrations by the
(§2) The media used for the test are bouillon agar for the common bacteria and glycerin bouillon agar for acid fast bacteria.

Bacillus brevis IFO 3331 = assay: as above; type: cell-based; settings: Brevibacillus brevis, IFO3331, bouillon agar
From the text: as §1, §2

Sarcina lutea IFO 3232 = assay: as above; type: cell-based; settings: Micrococcus luteus, IFO3232, bouillon agar
From the text: as §1, §2

[3] = tested on: Mycobacterium avium (Neomycin-resistant); assay: as above; type: cell-based; settings: read-out: Minimal inhibitory concentration
From the text: as §1, §2

[4] = tested on: Mycobacterium avium IFO 3153; assay: as above; type: cell-based; settings: IFO3153, glycerin bouillon agar
From the text: as §1, §2

Bacillus cereus IFO 3466 = assay: as above; type: cell-based; settings: IFO3466, bouillon agar
From the text: as §1, §2

[5] = tested on: Bacillus subtilis PCI 219; assay: as above; type: cell-based; settings: PCI219, bouillon agar
From the text: as §1, §2

Shigella flexneri EW-10 = assay: as above; type: cell-based; settings: EW10, bouillon agar
From the text: as §1, §2

[6] = tested on: Mycobacterium smegmatis IFO 3083; assay: as above; type: cell-based; settings: Mycolicibacterium smegmatis, IFO3083, glycerin bouillon agar
From the text: as §1, §2

[7] = tested on: Pseudomonas aeruginosa IFO 3080; assay: as above; type: cell-based; settings: IFO3080, bouillon agar
From the text: as §1, §2

[8] = tested on: Mycobacterium phlei IFO 3158; assay: as above; type: cell-based; settings: Mycolicibacterium phlei, IFO3158, glycerin bouillon agar
From the text: as §1, §2

[9] = tested on: Mycobacterium avium (Streptomycin-resistant); assay: as above; type: cell-based; settings: read-out: Minimal inhibitory concentration
From the text: as §1, §2

[10] = tested on: Staphylococcus aureus FDA 209P; assay: as above; type: cell-based; settings: FDA209P, bouillon agar
From the text: as §1, §2

[11] = tested on: Proteus vulgaris IFO 3045; assay: as above; type: cell-based; settings: IFO3045, bouillon agar
From the text: as §1, §2

For `NC[C@H]1O[C@H](O[C@H]2[C@H](O[C@@H]3O[C@H](CO)[C@H](O)[C@H]3O)[C@@H](O)[C@H](N)C[C@@H]2N)[C@H](N)[C@@H](O)[C@@H]1O` [xylostasin, O-β-D-xylofuranosyl-(1 → 5)-O-[α-2,6-diamino-2,6-dideoxy-D-glucopyranosyl-(1 → 4)]-2-deoxystreptamine], the LD50 [1] was ~1000 mg/kg, the “death of the mice” value (Escherichia coli 0-111) was “completely prevented” and the MIC [2] was 6.25 µg/mL (≈ 13.8 µM). The MIC (Bacillus brevis IFO 3331) was 25 µg/mL (≈ 55 µM), the MIC (Sarcina lutea IFO 3232) was 25 µg/mL (≈ 55 µM) and the MIC [3] was > 50 µg/mL. It also gave an MIC [4] of 1.6 µg/mL (≈ 3.52 µM), an MIC (Bacillus cereus IFO 3466) of 50 µg/mL (≈ 110 µM) and an MIC [5] of 3.12 µg/mL (≈ 6.88 µM). For the same compound, the MIC (Shigella flexneri EW-10) was 12.5 µg/mL (≈ 27.5 µM), the MIC [6] was 1.6 µg/mL (≈ 3.52 µM) and the MIC [7] was > 50 µg/mL. The MIC [8] was 1.6 µg/mL (≈ 3.52 µM), the MIC [9] was 3.12 µg/mL (≈ 6.88 µM) and the MIC [10] was 6.25 µg/mL (≈ 13.8 µM). The MIC [11] was 50 µg/mL (≈ 110 µM).
